According to ChEMBL document CHEMBL1139539, “Structure-based characterization and optimization of novel hydrophobic binding interactions in a series of pyrrolidine influenza neuraminidase inhibitors” (J Med Chem, 2005):

Target: Neuraminidase (Influenza B virus (strain B/Lee/1940), UniProt P03474)
Experiment: Effective concentration against neuraminidase of Influenza B virus B/Memphis strain

Sequence of Neuraminidase (P03474 whole entry): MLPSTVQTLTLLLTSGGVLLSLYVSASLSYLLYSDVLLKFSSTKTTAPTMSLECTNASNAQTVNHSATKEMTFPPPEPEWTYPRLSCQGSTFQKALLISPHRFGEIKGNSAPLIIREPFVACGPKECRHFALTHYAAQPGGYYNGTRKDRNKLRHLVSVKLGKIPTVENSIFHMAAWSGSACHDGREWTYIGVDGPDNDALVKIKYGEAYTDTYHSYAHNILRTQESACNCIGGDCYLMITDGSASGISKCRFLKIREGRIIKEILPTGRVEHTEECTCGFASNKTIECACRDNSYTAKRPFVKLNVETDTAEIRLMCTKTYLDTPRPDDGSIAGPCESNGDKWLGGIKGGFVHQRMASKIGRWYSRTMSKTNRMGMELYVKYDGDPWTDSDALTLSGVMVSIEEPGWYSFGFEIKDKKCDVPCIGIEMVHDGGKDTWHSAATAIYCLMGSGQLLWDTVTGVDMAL

| Compound | EC50 |
| --- | --- |
| CC(=O)N[C@@H](CC(C)C)[C@@H]1N[C@@H](C(=O)O)C[C@H]1c1nccs1 | 6 µM |
| C=C[C@@H]1C[C@H](C(=O)O)N[C@H]1[C@H](CC(C)C)NC(C)=O | 23 µM |
| CC(=O)N[C@@H](CC(C)C)[C@@H]1N[C@@H](C(=O)O)C[C@H]1C=C(F)F | 9 µM |
| CC(=O)N[C@@H](CC(C)C)[C@@H]1N[C@@H](C(=O)O)C[C@H]1c1c[nH]cn1 | 11 µM |
